Where “and” joins values, the source holds several entries; their conditions need not be identical. Equal entries are not always repeated.
Columns and labels:
[1] = system: rats with middle cerebral artery occlusion (MCAO); assay: Cylinder test (overall asymmetry, total movement) after MCAO; assay type: in vivo, Sprague Dawley rats; set-up: Cylinder Test (Total Movement) / Cylinder Test (Total Movement), Mean: unit not given here; settings: for Cylinder Test (Total Movement) / Cylinder Test Score (Overall Asymmetry (%)): individual animals and group Mean; for Cylinder Test (Total Movement), Mean: N 15
Source text: In particular, the MCAO model in Sprague Dawley rats that was utilized in the experiments presented below mimics the conditions in human ischemic stroke. In this model, focal cerebral infarcts were made by permanent occlusion of the proximal right middle cerebral artery (MCA) using a modification of the method of Tamura et al. (No To […] 1986; 38:747-51). Briefly, the temporalis muscle was bisected and reflected through an incision made midway between the eye and the ear canal. The proximal MCA was exposed through a subtemporal craniectomy without removing the zygomatic arch and without transecting the facial nerve. […] In this experiment, Sprague Dawley rats were anesthetized, subjected to a surgery resulting in middle cerebral artery occlusion (MCAO), treated with and without 4-aminopyridine and behavioral assessments were performed as described below. Treatment was initiated at 4 weeks after stroke. Dosing and Treatment: Rats were treated in accordance with the dosing schedule shown in Tables 2A, 2B, 3 and FIG. 2, with each Phase being a two week period of time. A solution of 4-AP was used in this experiment. […] Vehicle control treatment was WFI delivered at 2 mL/kg by gastric gavage. […] Starting on day 30 after MCAO (Day 30, start of phase 1), the animals received gavage dosing of solutions (2 mL/kg) approximately 12 hours apart, for a total of five doses. The same schedule was repeated with different treatment on Day 44 and Day 58 for phase 2 and 3 of the study, respectively. Animals were not treated during the 10 days between phases (washout period). Treatment groups: Dosing was started 4 weeks after MCAO surgery. During these 4 weeks, weekly behavioral assessments, as defined below, were performed. […] Animals were given the first dose and behavioral assessments were performed starting 60 minutes after dosing. Animals then received the second dose that day at the appropriate time and b.i.d (preferably every 12 hours) thereafter for 2 more days (3 total days of dosing, 5 total doses). One hour after the 5th dose, animals were subjected to behavioral assessments as defined below. Following the final behavioral assessment, drug was withdrawn for 10 or 11 days, behavior was re-assessed, and then animals were re-challenged with a cross-over treatment (Phase 2 of Table 2B) as described in Tables 2A, 2B and 3, followed by the same behavioral testing and dosing regimen. This cross-over was repeated one more time as well (Phase 3 of Table 2B) (see FIG. 2). Cylinder Test: Evaluation was performed at Day -1 (pre-operation), Day 7, Day 21, Day 30, Day 32, Day 44, Day 46, Day 58, Day 60. This test assessed limb use asymmetry. Rats were placed in a transparent cylinder (20 cm in diameter and 30 cm in height) for 3-6 minutes. A mirror was placed behind the cylinder to determine forelimb movements when animal was turned away from the camera. […] Simultaneous use of both left and right forelimbs while contacting the wall during a full rear was also scored. A total number of 20 forelimb placings were counted during a trial. Data was expressed in terms of percent use of the non-impaired and or impaired forelimb relative to the total number of limb use observations for wall movements.

[2] = cited from earlier work
Body weight of MCAO rats = assay type: in vivo, Sprague Dawley rats; settings: individual animals and group Mean
Source text: Tables 16-18 show Cylinder Test Total Score (% of overall asymmetry) for each of Groups 1-3.

[3] = system: rats with middle cerebral artery occlusion (MCAO); assay: Infarct volume measurement (H&E staining); assay type: in vivo, Sprague Dawley rats; settings: % of contralateral hemisphere; for Mean infarct volume (%): Example 2 crossover, Day 63
Procedure: Euthanasia and post-mortem processing: Infarct Volume analysis. After the last behavioral assessment, rats were anesthetized deeply with ketamine/xylazine (100 mg/kg ketamine, 10 mg/kg xylazine, i.p.) and perfused transcardially with normal saline (with heparin 2 unit/ml) followed by 4% paraformaldehyde or formalin on Day 63. Brains were harvested and processed for histological assessment. A subset of 10 brains per group was processed for infarct volume measurement (H&E staining).
Infarct measurement: Brains were embedded in paraffin and 5 micron thick coronal sections were cut using a microtome. Sections were stained with hematoxylin and eosin (H&E), using standard methods. Seven coronal sections (+4.7, +2.7, +0.7, −1.3, −3.3, −5.3 and −7.3, compared to bregma respectively) from each brain were photographed by a digital camera, and the infarct area on each slice was determined by NIH Image (Image J) using the “indirect method” (area of the intact contralateral [left] hemisphere−area of intact regions of the ipsilateral [right] hemisphere) to correct for brain edema. Infarct areas were then summed among slices and multiplied by slice thickness (the distance between sections) to give total infarct volume, which was expressed as a percentage of intact contralateral hemispheric volume.
Euthanasia and post-mortem processing: At day 70 after MCAO, rats were anesthetized as described in Example 2, above.
Infarct measurement: Infarct measurement was performed as described in Example 2, above.

[4] = system: rats with middle cerebral artery occlusion (MCAO); assay: Hindlimb placing test after MCAO; assay type: in vivo, Sprague Dawley rats

Nc1ccncc1 [4-AP, 4-aminopyridine]
Effect on body symmetry and coordination (cylinder test) ([1]; Example 2, 0.63 or 2 mg/kg b.i.d. p.o., started 4 weeks post MCAO, dose-dependent, reversible): effective to improve body symmetry and coordination
Cylinder Test (Total Movement) ([1]; Group 1, D 7): 131.00 and 130.00 and 77.00 and 57.00 (2×) and 139.00 and 35.00 and 15.00 and 32.00 and 14.00 and 63.00
Cylinder Test (Total Movement) ([1]; Group 1, D 7, mean): 58.07
Cylinder Test (Total Movement) ([1]; Group 1, D 21): 51.00 and 98.00 and 31.00 and 67.00 and 172.00 and 28.00 and 70.00 and 8.00 and 52.00 and 22.00 and 13.00
Cylinder Test (Total Movement) ([1]; Group 1, D 21, mean): 45.67
Cylinder Test (Total Movement) ([1]; Group 1, D 30): 0.00 (3×) and 75.00 and 2.00 and 10.00 (2×) and 6.00 and 13.00 and 12.00 and 4.00
Cylinder Test (Total Movement) ([1]; Group 1, D 32): 11.00 and 54.00 and 22.00 and 39.00 and 10.00 and 8.00 and 14.00 and 15.00 and 0.00 (2×) and 38.00
Cylinder Test (Total Movement) ([1]; Group 1, D 44): 28.00 and 93.00 and 48.00 and 57.00 and 47.00 and 9.00 and 123.00 and 11.00 and 5.00 and 66.00
Cylinder Test (Total Movement) ([1]; Group 1, D 46): 11.00 and 47.00 and 43.00 and 48.00 and 46.00 and 12.00 and 63.00 and 4.00 and 0.00 and 13.00
Cylinder Test (Total Movement) ([1]; Group 1, D 58): 14.00 and 137.00 and 18.00 and 81.00 and 53.00 and 16.00 and 74.00 and 0.00 and 11.00 and 26.00
Cylinder Test (Total Movement) ([1]; Group 1, D 58, mean): 36.47
Cylinder Test (Total Movement) ([1]; Group 1, D 60): 14.00 and 81.00 and 33.00 and 44.00 and 28.00 and 9.00 and 85.00 and 0.00 and 3.00 and 6.00
Cylinder Test (Total Movement) ([1]; Group 1, D 60, mean): 27.40
Cylinder Test (Total Movement) ([1]; Group 1, D −1): 64.00 and 152.00 and 81.00 and 52.00 and 100.00 and 53.00 and 47.00 and 14.00 and 31.00 and 23.00 and 49.00
Cylinder Test (Total Movement) ([1]; Group 1, D −1, mean): 63.07
Cylinder Test Score (Overall Asymmetry (%)) ([1]; Group 2, D 7): 55.47% and 28.85% and 25.00% and 51.56% and 50.00% and 58.33% and 42.36% and 28.57% and 43.14% and 24.32% and 14.29%
Cylinder Test Score (Overall Asymmetry (%)) ([1]; Group 2, D 7, mean): 38.14%
Cylinder Test Score (Overall Asymmetry (%)) ([1]; Group 2, D 21): 56.25% and −23.17% and 66.67% (2×) and 49.06% and 46.43% and 25.32% and 47.83% and 22.22% and 17.86% and −25.00%
Cylinder Test Score (Overall Asymmetry (%)) ([1]; Group 2, D 21, mean): 27.16%
Cylinder Test Score (Overall Asymmetry (%)) ([1]; Group 2, D 30): 51.72% and 0.00% and 4.17% and 56.64% and 27.59% and 75.00% and 20.99% and 27.50% and 16.67% and 20.00%
Cylinder Test Score (Overall Asymmetry (%)) ([1]; Group 2, D 32): 63.29% and 18.18% and 33.33% and 54.78% and 22.73% and 62.50% and 16.00% and 20.00% and 3.85% and 27.66% and −33.33%
Cylinder Test Score (Overall Asymmetry (%)) ([1]; Group 2, D 44): 58.33% and 14.04% and 38.96% and 52.53% and 11.54% and 54.93% and 7.14% and 18.18% and −27.08% and 17.65% and −20.00%
Cylinder Test Score (Overall Asymmetry (%)) ([1]; Group 2, D 44, mean): 14.61%
Cylinder Test Score (Overall Asymmetry (%)) ([1]; Group 2, D 46): 28.57% and 34.85% and 31.40% and 19.05% and 29.33% and 40.35% and 46.15% and 16.95% and 42.86% and 2.86%
Cylinder Test Score (Overall Asymmetry (%)) ([1]; Group 2, D 46, mean): 24.91%
Cylinder Test Score (Overall Asymmetry (%)) ([1]; Group 2, D 58): 29.17% and 50.00% and 66.67% and 54.76% and 30.00% and 88.00% and −7.69% and −16.67% and 62.50%
Cylinder Test Score (Overall Asymmetry (%)) ([1]; Group 2, D 60): 64.00% and 20.00% and 14.29% and 62.50% and 10.00% and 76.47% and 13.95% and 0.00% (2×) and −100.00%
Cylinder Test Score (Overall Asymmetry (%)) ([1]; Group 2, D −1): −15.58% and −1.96% and −24.39% and 2.38% and 0.00% and 1.65% and −2.20% and −7.58% and 21.05% and 8.45% and −2.70% and −5.66%
Cylinder Test Score (Overall Asymmetry (%)) ([1]; Group 2, D −1, mean): −4.05%
Cylinder Test (Total Movement), Mean ([1]; Group 3, D 44 after MCAO): 19.13
Cylinder Test (Total Movement), Mean ([1]; Group 3, D 46 after MCAO): 18.73
Cylinder Test (Total Movement), Mean ([1]; Group 3, D 58 after MCAO): 32.33
half life ([2]; Hayes et al., J. Clin. Pharmacol. 2003): 1 to 1.5 h
4-AP plasma concentrations obtained in clinical studies ([2]; typical, (94 ng/mL^−1)): < 1 µM
Weight (Body weight of MCAO rats; Group 1, D 1): 291 g and 317 g (2×) and 306 g and 315 g and 323 g and 294 g
Weight (Body weight of MCAO rats; Group 1, D 7): 328 g and 361 g and 359 g and 375 g and 369 g and 340 g and 366 g
Weight (Body weight of MCAO rats; Group 1, D 14): 375 g and 403 g and 394 g and 421 g and 436 g and 382 g and 422 g
Weight (Body weight of MCAO rats; Group 1, D 21): 399 g and 419 g and 416 g and 444 g and 494 g and 428 g and 469 g
Weight (Body weight of MCAO rats; Group 1, D 28): 427 g and 451 g and 436 g and 484 g and 525 g and 457 g and 506 g
Weight (Body weight of MCAO rats; Group 1, D 30): 425 g and 450 g and 435 g and 490 g and 544 g and 470 g and 512 g
Weight (Body weight of MCAO rats; Group 1, D 32): 411 g and 441 g and 417 g and 470 g and 515 g and 454 g and 496 g
Weight (Body weight of MCAO rats; Group 1, D 42): 448 g and 491 g and 449 g and 499 g and 565 g and 479 g and 543 g
Weight (Body weight of MCAO rats; Group 1, D 44): 455 g and 501 g and 447 g and 511 g and 566 g and 480 g and 545 g and 454 g
Weight (Body weight of MCAO rats; Group 1, D 46): 448 g and 490 g and 440 g and 494 g and 570 g and 488 g and 552 g
Weight (Body weight of MCAO rats; Group 1, D 56): 476 g and 509 g and 452 g and 523 g and 612 g and 496 g and 576 g
Weight (Body weight of MCAO rats; Group 1, D 58): 480 g and 520 g and 460 g and 530 g and 625 g and 512 g and 585 g
Weight (Body weight of MCAO rats; Group 1, D 60): 475 g and 511 g and 456 g and 527 g and 615 g and 509 g and 587 g
Weight (Body weight of MCAO rats; Group 1, D −1): 305 g and 317 g and 311 g and 332 g and 340 g and 324 g and 330 g and 313 g
Mean infarct volume (%) ([3]; Group 1 (H, L, V)): 45.0 (±1.8) %
Mean infarct volume (%) ([3]; Group 2 (L, V, H)): 41.4 (±2.3) %
Mean infarct volume (%) ([3]; Group 3 (V, H, L)): 39.0 (±3.3) %
Mean (SE) Infarct Volume (%) ([3]; Example 17, 4-AP 0.5, 1 and 2 mg/kg b.i.d. Days 56-65, brains at day 70 after MCAO): 40.0 (2.3) %
Hind limb placing score compared to vehicle ([4]; Example 17, 0.5 mg/kg b.i.d. p.o., Day 59 post-MCAO): improved with the low dose but did not reach significance
Hind limb test compared to vehicle ([4]; Example 17, 1 mg/kg b.i.d. p.o., Day 62 post-MCAO, p<0.05): measureable improvement
Hind limb function compared to vehicle ([4]; Example 17, 2 mg/kg b.i.d. p.o., Day 65 post-MCAO, p<0.001): significant improvements

— patent US20160058743A1, “METHODS FOR TREATING SENSORIMOTOR IMPAIRMENTS ASSOCIATED WITH CERTAIN TYPES OF STROKE USING AMINOPYRIDINES” (ACORDA THERAPEUTICS, INC., priority 2013, published 2016)
